experiment: Inhibition of IL-5 in mouse pro-B Y16 cells after 48 hrs by WST1 assay

SMILES	IC50 [µM]
CC(C)(C)c1ccc(C(O)/C=C/c2coc3cccc(OCC4CCCCC4)c3c2=O)cc1 (centres undefined)	> 30
CC(C)COc1cccc2occ(/C=C/C(O)c3ccc(O)cc3)c(=O)c12 (centres undefined)	> 30
COc1cccc2occ(/C=C/C(O)c3ccc(O)cc3)c(=O)c12 (centres undefined)	> 30
N#Cc1ccc(C(=O)/C=C/c2coc3cccc(OCC4CCCCC4)c3c2=O)cc1	> 30
O=C(/C=C/c1coc2cccc(OCC3CCCCC3)c2c1=O)c1ccc([N+](=O)[O-])cc1	> 30
O=C(/C=C/c1coc2cccc(OCC3CCCCC3)c2c1=O)c1ccc(C(F)(F)F)cc1	> 30
O=C(/C=C/c1coc2cccc(OCC3CCCCC3)c2c1=O)c1ccc(F)cc1	> 30
O=C(/C=C/c1coc2cccc(OCC3CCCCC3)c2c1=O)c1ccc(Cl)cc1	> 30
Cc1ccc(C(=O)/C=C/c2coc3cccc(OCC4CCCCC4)c3c2=O)cc1	25.1
COc1ccc(C(=O)/C=C/c2coc3cccc(OCC4CCCCC4)c3c2=O)cc1	> 30
O=C(/C=C/c1coc2cccc(OCC3CCCCC3)c2c1=O)c1ccccc1	> 30
COc1cccc2occ(/C=C/C(=O)c3ccc(O)cc3)c(=O)c12	> 30

The next molecules have a lower IC50 than those just listed; values first:

IC50 [µM]	SMILES
6.7	N#Cc1ccc(C(O)/C=C/c2coc3cccc(OCC4CCCCC4)c3c2=O)cc1 (centres undefined)
7	O=c1c(/C=C/C(O)c2ccc([N+](=O)[O-])cc2)coc2cccc(OCC3CCCCC3)c12 (centres undefined)
13.2	O=c1c(/C=C/C(O)c2ccc(C(F)(F)F)cc2)coc2cccc(OCC3CCCCC3)c12 (centres undefined)
6.4	O=c1c(/C=C/C(O)c2ccc(F)cc2)coc2cccc(OCC3CCCCC3)c12 (centres undefined)
7	O=c1c(/C=C/C(O)c2ccc(Cl)cc2)coc2cccc(OCC3CCCCC3)c12 (centres undefined)
15	Cc1ccc(C(O)/C=C/c2coc3cccc(OCC4CCCCC4)c3c2=O)cc1 (centres undefined)
16	COc1ccc(C(O)/C=C/c2coc3cccc(OCC4CCCCC4)c3c2=O)cc1 (centres undefined)
15	O=c1c(/C=C/C(O)c2ccccc2)coc2cccc(OCC3CCCCC3)c12 (centres undefined)
12.5	O=c1c(/C=C/C(O)c2ccc(O)cc2)coc2cccc(OCC3CCCCC3)c12 (centres undefined)
18.1	CC(C)(C)c1ccc(C(=O)/C=C/c2coc3cccc(OCC4CCCCC4)c3c2=O)cc1
16.2	O=C(/C=C/c1coc2cccc(OCC3CCCCC3)c2c1=O)c1ccc(O)cc1
19.1	CC(C)COc1cccc2occ(/C=C/C(=O)c3ccc(O)cc3)c(=O)c12
